# In paper PMC6193938, “Characterization of a novel AICARFT inhibitor which potently elevates ZMP and has anti-tumor activity in murine models” (Scientific Reports, 2018):
# Experiments:
# [1] = tested on: AMPK T172 phosphorylation in MDA-MB-231met2; experiment: Western analysis after overnight treatment in tissue culture; type: cell-based, human; settings: 0 to 20 μM, RPMI media
# Experimental: (§1) The levels of total actin, AMPKα and P70S6K are also shown. […] Full images and the croppings used in this figure are shown in Supplemental Figures S4–S13.
# (§2) Antibodies were purchased as follows: pAMPK Thr172 (Cell Signaling #2535), p-p70S6 Thr389 (Cell Signaling #9205), total p70S6 (Cell Signaling #2708), total AMPKα (Cell Signaling #2793) and Actin (Sigma #A5441). Frozen tumor samples were lysed with 500 µL ice cold lysis buffer plus Halt protease inhibitor (ThermoFisher #78430) using a Power Gen 125 tissue grinder (Fisher Scientific). Western blots were run as described in the supplemental material.
# (§3) Western Blots: Lysis buffer is 0.01 mg/mL Leupeptin, 0.01 mg/mL Trypsin-Chymotrypsin, 0.01 mg/mL TPCK, 0.1 mg/mL Aprotinin, 60 mM β-Gly PO4, 1% Triton-100, 25 mM Tris pH 7.5, 2.5 µM Na2Pyrophosphate, 150 mM NaCl, 0.76 mg/mL TAME, 6.2 mg/mL PNPP, 0.8 mg/mL Benzamidine, 0.2 mg/mL Na3V04, 0.42 mg/mL NaF, 0.5 mg/mL PMSF or PEFA, 1 mM DTT, 15 mM EDTA pH 8.0, 5 mM EGTA pH 8.0, 1 µM Okadaic acid, and 1 µM microcystine. RNA and DNA were degraded by addition of Benzonase (Novagen) with a 30 min incubation on ice. Lysates were cleared by centrifugation at 4 °C for 10 min at 16,000 x g. Protein content was measured using Pierce BCA protein assay kit (Thermo Scientific). Twenty ug of total protein was resolved on a 4-20% Tris HCl Criterion XT precast gel (BioRad) at 100 V for 90 minutes. Transfer electrophoresed proteins to a 0.2 µm nitrocellulose membrane using Trans Blot Turbo System (BioRad). Block membranes for 1 hr at RT in Odyssey blocking buffer (LiCor). Probe overnight 4°C for primary antibodies. Wash blots 3 x 5 min in 20 mL PBS-0.1% Tween-20.
# [2] = tested on: AMPK T172 phosphorylation in NCI-H460; experiment: as above; type: cell-based, human; settings: 0 to 20 μM, RPMI media
# Experimental: as §1, §2, §3
# [3] = tested on: P70S6K T389 phosphorylation in MDA-MB-231met2; experiment: as above; type: cell-based, human; settings: 0 to 20 μM, RPMI media
# Experimental: as §1, §2, §3
# [4] = tested on: P70S6K T389 phosphorylation in NCI-H460; experiment: as above; type: cell-based, human; settings: 0 to 20 μM, RPMI media
# Experimental: as §1, §2, §3
# CDK4 = biological target: T1, CDK4 (Homo sapiens, UniProt P11802); experiment: CEREP protein kinase assay; type: biochemical
# T1 construct: purchased CEREP Panlabs (Eurofins)
# CK1e = biological target: T2, CK1e (Homo sapiens, UniProt P49674); experiment: CEREP protein kinase assay; type: biochemical
# T2 construct: purchased CEREP Panlabs (Eurofins)
# EPHB2 = biological target: T3, EPHB2 (Homo sapiens, UniProt P29323); experiment: CEREP protein kinase assay; type: biochemical
# T3 construct: purchased CEREP Panlabs (Eurofins)
# T3 sequence (P29323 19-1055): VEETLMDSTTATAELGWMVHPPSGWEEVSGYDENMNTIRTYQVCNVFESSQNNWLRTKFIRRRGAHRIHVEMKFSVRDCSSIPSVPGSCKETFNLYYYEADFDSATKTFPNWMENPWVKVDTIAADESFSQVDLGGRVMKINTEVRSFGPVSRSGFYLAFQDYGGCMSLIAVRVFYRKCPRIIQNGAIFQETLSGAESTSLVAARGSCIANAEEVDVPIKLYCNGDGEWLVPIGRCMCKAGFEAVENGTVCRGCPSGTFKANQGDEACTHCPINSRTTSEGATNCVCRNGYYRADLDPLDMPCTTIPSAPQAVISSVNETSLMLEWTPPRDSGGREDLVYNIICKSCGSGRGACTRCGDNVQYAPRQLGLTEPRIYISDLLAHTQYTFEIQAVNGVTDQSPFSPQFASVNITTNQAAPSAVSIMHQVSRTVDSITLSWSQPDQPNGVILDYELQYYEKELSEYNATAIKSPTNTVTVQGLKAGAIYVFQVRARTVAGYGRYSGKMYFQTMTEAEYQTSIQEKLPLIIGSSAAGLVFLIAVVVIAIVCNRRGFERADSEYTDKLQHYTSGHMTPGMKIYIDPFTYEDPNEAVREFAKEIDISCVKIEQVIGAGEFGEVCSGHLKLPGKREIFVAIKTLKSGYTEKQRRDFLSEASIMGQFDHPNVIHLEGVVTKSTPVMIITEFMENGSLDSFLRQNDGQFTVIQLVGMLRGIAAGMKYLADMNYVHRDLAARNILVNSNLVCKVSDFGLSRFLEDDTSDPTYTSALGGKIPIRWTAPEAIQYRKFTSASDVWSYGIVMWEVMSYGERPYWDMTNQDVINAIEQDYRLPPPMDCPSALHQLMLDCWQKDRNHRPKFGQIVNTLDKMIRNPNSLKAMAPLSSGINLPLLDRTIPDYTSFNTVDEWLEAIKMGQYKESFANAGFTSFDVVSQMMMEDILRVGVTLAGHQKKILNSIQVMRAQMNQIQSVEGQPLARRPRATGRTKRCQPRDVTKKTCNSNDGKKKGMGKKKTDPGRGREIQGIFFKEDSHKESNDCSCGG
# FAK = biological target: T4, FAK (Homo sapiens, UniProt Q05397); experiment: CEREP protein kinase assay; type: biochemical
# T4 construct: purchased CEREP Panlabs (Eurofins)
# HIPK2 = biological target: T5, HIPK2 (Homo sapiens, UniProt Q9H2X6); experiment: CEREP protein kinase assay; type: biochemical
# T5 construct: purchased CEREP Panlabs (Eurofins)
# PYK2 = biological target: T6, PYK2 (Homo sapiens, UniProt Q14289); experiment: CEREP protein kinase assay; type: biochemical
# T6 construct: purchased CEREP Panlabs (Eurofins)
# ROCK2 = biological target: T7, ROCK2 (Homo sapiens, UniProt O75116); experiment: CEREP protein kinase assay; type: biochemical
# T7 construct: purchased CEREP Panlabs (Eurofins)
# T7 sequence (O75116 whole entry): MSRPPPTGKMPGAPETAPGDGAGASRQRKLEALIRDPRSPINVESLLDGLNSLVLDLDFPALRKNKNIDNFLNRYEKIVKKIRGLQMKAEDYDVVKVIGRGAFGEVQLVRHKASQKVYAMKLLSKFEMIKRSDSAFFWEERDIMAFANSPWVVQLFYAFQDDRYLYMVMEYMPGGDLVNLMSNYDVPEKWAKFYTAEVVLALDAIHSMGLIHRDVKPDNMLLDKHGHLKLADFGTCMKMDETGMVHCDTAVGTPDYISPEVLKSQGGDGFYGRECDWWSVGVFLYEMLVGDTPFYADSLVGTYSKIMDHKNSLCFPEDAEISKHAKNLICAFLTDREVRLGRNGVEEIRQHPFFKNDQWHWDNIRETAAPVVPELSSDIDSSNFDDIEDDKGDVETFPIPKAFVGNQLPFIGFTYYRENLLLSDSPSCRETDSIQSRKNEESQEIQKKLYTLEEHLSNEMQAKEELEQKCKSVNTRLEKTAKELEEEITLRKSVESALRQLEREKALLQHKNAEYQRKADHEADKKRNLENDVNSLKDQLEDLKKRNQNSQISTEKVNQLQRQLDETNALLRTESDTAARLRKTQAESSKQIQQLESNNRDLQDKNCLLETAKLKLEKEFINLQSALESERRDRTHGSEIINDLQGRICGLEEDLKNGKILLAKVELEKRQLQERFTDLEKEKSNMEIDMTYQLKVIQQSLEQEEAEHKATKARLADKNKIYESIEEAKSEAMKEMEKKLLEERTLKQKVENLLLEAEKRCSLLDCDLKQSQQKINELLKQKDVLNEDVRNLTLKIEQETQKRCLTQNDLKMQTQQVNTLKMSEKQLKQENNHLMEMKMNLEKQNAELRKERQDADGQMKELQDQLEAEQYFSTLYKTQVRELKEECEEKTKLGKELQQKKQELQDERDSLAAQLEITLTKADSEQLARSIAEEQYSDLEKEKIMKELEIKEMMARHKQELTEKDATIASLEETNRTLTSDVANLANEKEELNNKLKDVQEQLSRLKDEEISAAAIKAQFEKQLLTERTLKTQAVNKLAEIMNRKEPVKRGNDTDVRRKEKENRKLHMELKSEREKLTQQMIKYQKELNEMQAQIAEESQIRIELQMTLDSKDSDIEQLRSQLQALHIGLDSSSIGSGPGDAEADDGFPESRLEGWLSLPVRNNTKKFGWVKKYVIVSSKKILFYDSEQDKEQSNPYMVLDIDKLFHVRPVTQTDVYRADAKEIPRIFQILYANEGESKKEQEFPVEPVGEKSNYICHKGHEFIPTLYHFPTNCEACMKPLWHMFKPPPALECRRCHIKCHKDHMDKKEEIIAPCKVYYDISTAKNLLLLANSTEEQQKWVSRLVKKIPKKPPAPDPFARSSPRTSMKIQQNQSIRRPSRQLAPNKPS
# T4 sequence (Q05397 whole entry): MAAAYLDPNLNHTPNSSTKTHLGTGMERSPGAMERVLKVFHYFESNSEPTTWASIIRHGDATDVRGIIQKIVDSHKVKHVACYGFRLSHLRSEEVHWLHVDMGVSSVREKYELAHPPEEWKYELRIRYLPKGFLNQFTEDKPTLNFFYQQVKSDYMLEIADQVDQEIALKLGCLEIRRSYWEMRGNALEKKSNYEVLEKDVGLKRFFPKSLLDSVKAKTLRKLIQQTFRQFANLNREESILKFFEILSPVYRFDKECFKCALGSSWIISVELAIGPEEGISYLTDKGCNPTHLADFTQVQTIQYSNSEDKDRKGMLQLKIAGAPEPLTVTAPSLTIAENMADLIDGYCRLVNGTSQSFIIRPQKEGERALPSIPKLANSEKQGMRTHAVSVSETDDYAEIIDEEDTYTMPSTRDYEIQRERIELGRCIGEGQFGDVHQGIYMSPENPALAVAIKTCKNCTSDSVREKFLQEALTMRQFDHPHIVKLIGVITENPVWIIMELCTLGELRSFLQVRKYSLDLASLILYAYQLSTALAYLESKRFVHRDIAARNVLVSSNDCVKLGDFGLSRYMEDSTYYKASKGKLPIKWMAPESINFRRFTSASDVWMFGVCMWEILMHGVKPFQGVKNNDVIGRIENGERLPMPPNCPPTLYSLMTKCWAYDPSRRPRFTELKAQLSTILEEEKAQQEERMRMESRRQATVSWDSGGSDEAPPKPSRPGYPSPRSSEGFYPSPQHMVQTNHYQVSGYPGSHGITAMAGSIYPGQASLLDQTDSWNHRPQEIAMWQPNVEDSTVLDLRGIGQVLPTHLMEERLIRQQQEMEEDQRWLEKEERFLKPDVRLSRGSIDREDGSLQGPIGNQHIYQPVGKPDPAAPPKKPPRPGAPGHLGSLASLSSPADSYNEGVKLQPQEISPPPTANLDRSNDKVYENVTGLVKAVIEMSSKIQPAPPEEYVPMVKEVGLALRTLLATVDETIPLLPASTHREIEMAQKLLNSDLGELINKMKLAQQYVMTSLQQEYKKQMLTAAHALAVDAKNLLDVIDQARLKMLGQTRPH
# T6 sequence (Q14289 whole entry): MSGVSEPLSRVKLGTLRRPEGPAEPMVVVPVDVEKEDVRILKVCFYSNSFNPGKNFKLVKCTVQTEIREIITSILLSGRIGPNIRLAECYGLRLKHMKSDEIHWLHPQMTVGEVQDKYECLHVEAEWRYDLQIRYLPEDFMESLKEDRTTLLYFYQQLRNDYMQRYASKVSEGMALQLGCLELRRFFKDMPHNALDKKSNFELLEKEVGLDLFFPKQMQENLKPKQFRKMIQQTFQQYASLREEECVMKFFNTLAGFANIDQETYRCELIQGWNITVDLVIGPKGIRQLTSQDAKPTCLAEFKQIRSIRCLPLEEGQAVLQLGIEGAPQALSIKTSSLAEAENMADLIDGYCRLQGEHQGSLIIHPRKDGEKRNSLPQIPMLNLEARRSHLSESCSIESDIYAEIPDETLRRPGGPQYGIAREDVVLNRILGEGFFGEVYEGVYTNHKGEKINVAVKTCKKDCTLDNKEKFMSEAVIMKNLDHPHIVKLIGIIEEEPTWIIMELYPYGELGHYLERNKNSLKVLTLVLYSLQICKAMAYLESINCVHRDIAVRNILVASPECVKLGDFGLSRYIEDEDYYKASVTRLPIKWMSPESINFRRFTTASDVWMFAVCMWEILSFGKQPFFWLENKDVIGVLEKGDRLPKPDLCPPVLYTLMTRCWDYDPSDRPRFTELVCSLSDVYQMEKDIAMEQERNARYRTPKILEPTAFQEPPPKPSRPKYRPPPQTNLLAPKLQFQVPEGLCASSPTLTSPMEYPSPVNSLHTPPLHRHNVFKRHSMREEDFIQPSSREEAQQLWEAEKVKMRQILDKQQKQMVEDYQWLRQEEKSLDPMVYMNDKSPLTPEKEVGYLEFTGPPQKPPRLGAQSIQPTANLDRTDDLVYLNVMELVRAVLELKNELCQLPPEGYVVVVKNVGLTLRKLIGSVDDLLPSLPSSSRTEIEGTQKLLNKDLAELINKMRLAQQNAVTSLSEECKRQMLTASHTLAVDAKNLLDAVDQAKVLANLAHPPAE
# T2 sequence (P49674 whole entry): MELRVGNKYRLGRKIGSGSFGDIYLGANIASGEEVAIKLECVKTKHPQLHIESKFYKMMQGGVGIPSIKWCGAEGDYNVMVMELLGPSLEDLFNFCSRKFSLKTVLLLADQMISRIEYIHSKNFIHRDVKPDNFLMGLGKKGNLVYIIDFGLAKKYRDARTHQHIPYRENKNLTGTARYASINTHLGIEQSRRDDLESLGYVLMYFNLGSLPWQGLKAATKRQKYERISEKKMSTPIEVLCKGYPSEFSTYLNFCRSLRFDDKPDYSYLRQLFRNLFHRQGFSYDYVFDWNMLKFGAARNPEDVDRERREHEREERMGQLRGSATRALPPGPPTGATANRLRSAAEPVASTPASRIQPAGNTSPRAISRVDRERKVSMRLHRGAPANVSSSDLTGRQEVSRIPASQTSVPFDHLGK
# T1 sequence (P11802 whole entry): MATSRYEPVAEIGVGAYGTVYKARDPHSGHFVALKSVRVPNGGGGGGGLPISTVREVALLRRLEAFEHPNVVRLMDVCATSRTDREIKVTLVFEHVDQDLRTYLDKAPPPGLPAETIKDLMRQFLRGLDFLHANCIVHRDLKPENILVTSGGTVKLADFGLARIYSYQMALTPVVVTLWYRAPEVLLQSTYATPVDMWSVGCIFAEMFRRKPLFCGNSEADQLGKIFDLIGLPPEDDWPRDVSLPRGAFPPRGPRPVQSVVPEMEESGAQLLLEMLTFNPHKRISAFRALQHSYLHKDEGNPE
# T1 sequence (P24385 whole entry partner): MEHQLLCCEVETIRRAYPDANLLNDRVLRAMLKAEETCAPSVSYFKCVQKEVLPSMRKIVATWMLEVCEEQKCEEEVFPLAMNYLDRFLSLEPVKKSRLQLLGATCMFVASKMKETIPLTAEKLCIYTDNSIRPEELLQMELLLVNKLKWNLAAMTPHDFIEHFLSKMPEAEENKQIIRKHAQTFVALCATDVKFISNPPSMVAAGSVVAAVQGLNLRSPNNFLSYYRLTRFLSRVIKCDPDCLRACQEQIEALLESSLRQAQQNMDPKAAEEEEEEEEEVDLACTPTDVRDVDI
smiles,measurement,setting,value
"O=c1[nH]ccc2cc(F)c(NS(=O)(=O)c3ccc(N4CC[C@@H](O)C4)s3)cc12 [LSN3213128, N-(6-Fluoro-1-oxo-1,2-dihydroisoquinolin-7-yl)-5-[(3R)-3-hydroxypyrrolidin-1-yl]thiophene-2-sulfonamide]",AMPK T172 phosphorylation,[1],expected increase
same,phosphorylated AMPK T172,[2],not increased
same,P70S6K T389 phosphorylation,[3],corresponding decrease
same,phosphorylation of P70S6K T389,[4],inhibits the phosphorylation
same,inhibition at 0.2 µM,CDK4; @ 0.2 uM,-1.51%
same,inhibition at 2 µM,CDK4; @ 2 uM,2.45%
same,inhibition at 20 µM,CDK4; @ 20 uM,37.2%
same,inhibition at 0.2 µM,CK1e; @ 0.2 uM,-4.69%
same,inhibition at 2 µM,CK1e; @ 2 uM,-1.12%
same,inhibition at 20 µM,CK1e; @ 20 uM,7.65%
same,inhibition at 0.2 µM,EPHB2; @ 0.2 uM,-14.3%
same,inhibition at 2 µM,EPHB2; @ 2 uM,8.96%
same,inhibition at 20 µM,EPHB2; @ 20 uM,12%
same,inhibition at 0.2 µM,FAK; @ 0.2 uM,-12.7%
same,inhibition at 2 µM,FAK; @ 2 uM,-4.84%
same,inhibition at 20 µM,FAK; @ 20 uM,40.1%
same,inhibition at 0.2 µM,HIPK2; @ 0.2 uM,-9.39%
same,inhibition at 2 µM,HIPK2; @ 2 uM,6.25%
same,inhibition at 20 µM,HIPK2; @ 20 uM,14.1%
same,inhibition at 0.2 µM,PYK2; @ 0.2 uM,-25.1%
same,inhibition at 2 µM,PYK2; @ 2 uM,-1.17%
same,inhibition at 20 µM,PYK2; @ 20 uM,16.5%
same,inhibition at 0.2 µM,ROCK2; @ 0.2 uM,-3.09%
same,inhibition at 2 µM,ROCK2; @ 2 uM,4.72%
same,inhibition at 20 µM,ROCK2; @ 20 uM,5.81%
